Source: the supplement of paper PMC10307832

Experiments:
Assay in all cases: relative viability (nuclei count vs DMSO), 5 days (fraction); higher = more cells survive
AZ3146 + Crizotinib = compound: CN1CCC(CC1)OC2=CC(=C(C=C2)NC3=NC=C4C(=N3)N(C(=O)N4C)C5CCCC5)OC [AZ3146] + C[C@@H](Oc1cc(-c2cnn(C3CCNCC3)c2)cnc1N)c1c(Cl)ccc(F)c1Cl [Crizotinib] (partner 1 µM)
Summary of the method: (§1)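 Medians of duplicate plates are given as relative viability. That measure is the nuclei count in treated wells divided by the count in vehicle wells. Counts were taken on 4× images of lung cancer cell lines in 1536-well plates, 5 days after pin-tool dosing the day after seeding with one drug alone or a fixed anchor-drug dose plus five library-drug doses (not always all listed) in √10 steps.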

GSK-J4 + Navitoclax = compound: CCOC(=O)CCNc1cc(N2CCc3ccccc3CC2)nc(-c2ccccn2)n1 [GSK-J4] + CC1(C)CCC(c2ccc(Cl)cc2)=C(CN2CCN(c3ccc(C(=O)NS(=O)(=O)c4ccc(N[C@H](CCN5CCOCC5)CSc5ccccc5)c(S(=O)(=O)C(F)(F)F)c4)cc3)CC2)C1 [Navitoclax] (partner 0.5 µM)
Summary of the method: as §1

GSK-J4 + Palbociclib = compound: CCOC(=O)CCNc1cc(N2CCc3ccccc3CC2)nc(-c2ccccn2)n1 [GSK-J4] + CC(=O)c1c(C)c2cnc(Nc3ccc(N4CCNCC4)cn3)nc2n(C2CCCC2)c1=O [Palbociclib] (partner 0.5 µM)
Summary of the method: as §1

AZ3146 + Linsitinib = compound: CN1CCC(CC1)OC2=CC(=C(C=C2)NC3=NC=C4C(=N3)N(C(=O)N4C)C5CCCC5)OC [AZ3146] + C[C@]1(O)C[C@@H](c2nc(-c3ccc4ccc(-c5ccccc5)nc4c3)c3c(N)nccn32)C1 [Linsitinib] (partner 1 µM)
Summary of the method: as §1

Row | Cell Line | relative viability (AZ3146 + Crizotinib; first compound 0.08 µM) | relative viability (AZ3146 + Crizotinib; first compound 0.253 µM) | relative viability (AZ3146 + Crizotinib; first compound 0.8 µM) | relative viability (AZ3146 + Crizotinib; first compound 2.53 µM) | relative viability (AZ3146 + Crizotinib; first compound 8 µM) | relative viability (GSK-J4 + Navitoclax; first compound 0.5 µM) | relative viability (GSK-J4 + Navitoclax; first compound 1.581 µM) | relative viability (GSK-J4 + Navitoclax; first compound 5 µM) | relative viability (GSK-J4 + Navitoclax; first compound 15.81 µM) | relative viability (GSK-J4 + Navitoclax; first compound 50 µM) | relative viability (GSK-J4 + Palbociclib; first compound 0.5 µM) | relative viability (GSK-J4 + Palbociclib; first compound 1.581 µM) | relative viability (GSK-J4 + Palbociclib; first compound 5 µM) | relative viability (GSK-J4 + Palbociclib; first compound 15.81 µM) | relative viability (GSK-J4 + Palbociclib; first compound 50 µM) | relative viability (AZ3146 + Linsitinib; first compound 0.08 µM) | relative viability (AZ3146 + Linsitinib; first compound 0.253 µM) | relative viability (AZ3146 + Linsitinib; first compound 0.8 µM) | relative viability (AZ3146 + Linsitinib; first compound 2.53 µM) | relative viability (AZ3146 + Linsitinib; first compound 8 µM)
1 | 201T | 1.02 | 1.03 | 1 | 1.06 | 1.02 | 1.19 | 1.28 | 1.25 | 1.21 | 1.16 | 0.359 | 0.358 | 0.361 | 0.326 | 0.352 | 0.876 | 1.06 | 1.05 | 1.05 | 1.06
2 | A549 | 0.655 | 0.777 | 0.453 | 0.0847 | 0.0598 | 1.08 | 1.15 | 1.24 | 1.24 | 1.2 | – | – | – | – | – | 0.653 | 0.653 | 0.593 | 0.571 | 0.51
3 | A-427 | 0.877 | 0.927 | 0.869 | 0.804 | 0.444 | 0.951 | – | 0.925 | 0.906 | 0.782 | 0.507 | 0.439 | – | 0.511 | 0.443 | 1.08 | 1.07 | 1.04 | 1.19 | 1.12
4 | ABC-1 | 0.852 | 1.38 | 1.03 | 1.07 | 0.452 | – | – | – | – | – | 0.599 | 0.589 | 0.605 | 0.691 | 0.432 | 0.83 | 0.71 | 0.861 | 0.855 | 0.977
5 | BEN | – | 0.869 | 0.97 | 0.822 | 0.829 | 0.0769 | 0.0597 | – | 0.0496 | 0.042 | 0.476 | 0.314 | 0.465 | 0.419 | 0.457 | – | 0.919 | 0.703 | 1.01 | 0.843
6 | CAL-12T | 0.507 | 0.72 | 0.595 | 0.733 | 0.247 | 1.2 | 1.17 | 1.47 | 1.16 | 1.21 | 0.46 | 0.342 | 0.442 | 0.482 | 0.493 | 0.867 | 0.756 | 0.824 | 0.885 | 0.932
7 | COR-L23 | 0.506 | 0.649 | 0.622 | 0.502 | 0.407 | 0.886 | 1.02 | – | 0.929 | 0.956 | 0.274 | 0.233 | – | 0.251 | 0.258 | 0.771 | 1.04 | 0.852 | 1.1 | 0.884
8 | COR-L 105 | 0.756 | 0.745 | 0.508 | 0.518 | 0.332 | 0.692 | 0.551 | 0.647 | 0.88 | 0.679 | 0.428 | – | 0.342 | 0.415 | 0.396 | 0.963 | 1.2 | 0.891 | 0.888 | 0.787
9 | Calu-6 | 0.715 | 0.763 | 0.701 | 0.465 | 0.256 | 0.86 | 0.74 | 0.779 | 0.874 | 0.716 | – | – | – | – | – | 0.925 | 0.925 | 0.928 | 0.948 | 0.971
10 | ChaGo-K-1 | 1 | 1.26 | 0.951 | 0.593 | 0.328 | 1.09 | – | 1.02 | 1.03 | 0.895 | 0.934 | – | 0.967 | 0.889 | 0.845 | – | – | – | – | –
11 | EBC-1 | 0.192 | 0.213 | 0.173 | 0.194 | 0.166 | 0.367 | 0.4 | 0.356 | 0.4 | 0.264 | – | – | – | – | – | 0.906 | 0.707 | 0.899 | 0.879 | 0.991
12 | EKVX | 0.957 | 1.12 | 1.06 | 1.1 | 0.365 | 0.871 | 0.874 | 1.12 | 0.834 | 0.951 | 0.352 | – | 0.365 | 0.352 | 0.344 | 0.945 | 1 | 0.819 | 1.09 | 0.95
13 | EMC-BAC-2 | 0.679 | 0.696 | 0.884 | 0.763 | 0.731 | 1.17 | 1.07 | 1.24 | 1.04 | 1.13 | 0.505 | 0.474 | – | 0.465 | 0.471 | 0.81 | 0.756 | 0.836 | 0.791 | 0.82
14 | EPLC-272H | 0.78 | 0.843 | 1.02 | 1.14 | 0.975 | 1.14 | – | 1.21 | 0.979 | 1.02 | 0.342 | 0.327 | 0.371 | 0.309 | 0.33 | 0.988 | 1.07 | 1.16 | 1.07 | 1.24
15 | H3255 | 0.841 | 0.884 | 0.886 | 1.03 | 0.442 | 0.474 | 0.494 | 0.543 | 0.368 | 0.444 | 0.325 | 0.299 | 0.257 | 0.279 | 0.284 | 0.9 | 0.987 | 0.961 | 0.998 | 0.902
16 | HARA | 0.983 | 1.03 | 1.03 | 0.72 | 0.206 | 1.16 | 0.827 | – | 1.15 | 0.916 | 0.242 | 0.247 | 0.23 | 0.234 | 0.3 | 0.821 | 0.95 | 1.01 | 0.993 | 0.935
17 | HCC-15 | 0.83 | 0.863 | 0.768 | 0.677 | 0.445 | 0.692 | 0.701 | 0.779 | 0.566 | 0.444 | 0.712 | 0.528 | 0.701 | 0.694 | 0.488 | 0.815 | 0.946 | 0.874 | 0.879 | 0.879
